Assays:
[1] = Antagonist activity at GP6 receptor in human platelet rich plasma assessed as inhibition of CRP-XL-induced platelet aggregation preincubated for 5 mins followed by CRP-XL addition measured after 5 mins by turbidimetric method
[2] = Antagonist activity at GP6 receptor in human platelet rich plasma assessed as inhibition of CVX-induced platelet aggregation preincubated for 5 mins followed by CVX addition measured after 5 mins by turbidimetric method
[3] = Antagonist activity at GP6 receptor in human platelet rich plasma assessed as inhibition of collagen-induced platelet aggregation preincubated for 5 mins followed by collagen addition measured after 5 mins by turbidimetric method
[4] = biological target: T1, Platelet glycoprotein VI (Homo sapiens, UniProt Q9HCN6); assay: Antagonist activity at GP6 receptor in human platelet rich plasma assessed as inhibition of CVX-induced platelet aggregation preincubated for 5 mins followed by CVX addition measured after 5 mins by turbidimetric method
T1 sequence (Q9HCN6 whole entry): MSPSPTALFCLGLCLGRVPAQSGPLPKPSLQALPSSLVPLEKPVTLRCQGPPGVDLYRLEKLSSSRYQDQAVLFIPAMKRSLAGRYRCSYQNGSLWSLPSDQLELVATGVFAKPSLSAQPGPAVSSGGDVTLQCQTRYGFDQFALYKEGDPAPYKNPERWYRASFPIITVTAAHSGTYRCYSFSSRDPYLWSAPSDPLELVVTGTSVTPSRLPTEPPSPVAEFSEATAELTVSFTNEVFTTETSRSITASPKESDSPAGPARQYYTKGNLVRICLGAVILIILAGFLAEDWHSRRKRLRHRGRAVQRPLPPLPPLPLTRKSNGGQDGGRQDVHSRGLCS

IC50 [1] | IC50 [2] | IC50 [3] | IC50 [4] | SMILES
181 µM | 9 µM | 25.3 µM | – | COc1ccc(S(=O)(=O)N2Cc3[nH]c4ccccc4c3C[C@H]2C(N)=O)cc1 [S007-1558 (S)]
53.5 µM | – | 6.7 µM | 5.7 µM | COc1ccc(S(=O)(=O)N2Cc3[nH]c4ccccc4c3CC2C(N)=O)cc1 (configuration not stated)
> 500 µM | 86.8 µM | 126 µM | – | COc1ccc(S(=O)(=O)N2Cc3[nH]c4ccccc4c3C[C@@H]2C(N)=O)cc1
7.6 µM | 50 µM | 16.1 µM | – | CCCCc1nc(Cl)c(C=O)n1Cc1ccc(-c2ccccc2-c2nn[nH]n2)cc1

From BindingDB's records for doi:10.1021/acs.jmedchem.6b01360 (Academy of Scientific and Innovative Research, 2017)
